Experiments:
cyclooxygenase = target: T1, cyclooxygenase (Homo sapiens, UniProt P23219); assay: Test b): heparinised human blood challenged with A23187, radioimmunoassay of TxB₂; format: cell-based; settings: heparinised human blood, calcium ionophore A23187 challenge; read-out: IC₅₀ against TxB₂ in test b)
T1 construct: may be measured at the same time using the specific radioimmunoassay for thromboxane B₂(TxB₂); endogenous in cells; host or cells: human whole blood (heparinised), blood cells
Procedure: (§1) As stated previously, the heterocyclic cyclic ethers of the formula I are inhibitors of the enzyme 5-LO. […] This test provides a measure of the intrinsic inhibitory properties against soluble 5-LO in an extracellular environment. • b) An in vitro assay system involving incubating a test compound with heparinised human blood, prior to challenge with the calcium ionophore A23187 and then indirectly measuring the inhibitory effects on 5-LO by assaying the amount of LTB₄ using the specific radioimmunoassay described by Carey and Forder (F. Carey and R.A. Forder, Brit. […] The effects of a test compound on the enzyme cyclooxygenase (which is involved in the alternative metabolic pathway for arachidonic acid and gives rise to prostaglandins, thromboxanes and related metabolites) may be measured at the same time using the specific radioimmunoassay for thromboxane B₂(TxB₂) described by Carey and Forder (see above). […] It permits the selectivity of the inhibitory effect on 5-LO or cyclooxygenase to be assessed. • c) An ex vivo assay system, which is a variation of test b) above, involving administration of a test compound (usually orally as the suspension produced when a solution of the test compound in dimethylsulphoxide is added to carboxymethylcellulose), blood collection, heparinisation, challenge with A23187 and radioimmunoassay of LTB₄ and TxB₂. […]

5-LO = target: T2, 5-LO (Homo sapiens, UniProt P09917); assay: Test b): heparinised human blood challenged with A23187, radioimmunoassay of LTB₄; format: cell-based; settings: heparinised human blood, calcium ionophore A23187 challenge; read-out: IC₅₀ against LTB₄ in test b)
T2 construct: incubating a test compound with heparinised human blood, prior to challenge with the calcium ionophore A23187; endogenous in cells; host or cells: human whole blood (heparinised), blood cells
T2 sequence (P09917 1-674): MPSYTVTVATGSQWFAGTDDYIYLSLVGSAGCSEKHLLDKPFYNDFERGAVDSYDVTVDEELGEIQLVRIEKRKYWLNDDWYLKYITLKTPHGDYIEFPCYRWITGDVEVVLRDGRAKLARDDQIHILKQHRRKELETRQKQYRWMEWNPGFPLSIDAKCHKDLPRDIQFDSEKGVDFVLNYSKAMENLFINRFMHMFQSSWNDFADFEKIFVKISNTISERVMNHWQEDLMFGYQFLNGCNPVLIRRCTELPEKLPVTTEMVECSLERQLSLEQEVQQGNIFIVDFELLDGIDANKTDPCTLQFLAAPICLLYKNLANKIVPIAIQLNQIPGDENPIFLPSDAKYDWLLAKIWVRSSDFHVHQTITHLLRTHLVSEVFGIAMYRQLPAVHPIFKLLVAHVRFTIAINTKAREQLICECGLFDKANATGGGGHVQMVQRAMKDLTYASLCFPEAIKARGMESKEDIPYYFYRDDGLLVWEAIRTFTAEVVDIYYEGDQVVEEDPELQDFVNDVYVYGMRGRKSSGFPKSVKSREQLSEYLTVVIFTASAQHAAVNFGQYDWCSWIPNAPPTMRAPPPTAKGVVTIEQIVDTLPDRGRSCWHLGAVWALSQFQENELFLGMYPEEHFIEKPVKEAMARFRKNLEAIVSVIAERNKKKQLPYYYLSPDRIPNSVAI
Procedure: as §1

T1 sequence (P23219 24-599): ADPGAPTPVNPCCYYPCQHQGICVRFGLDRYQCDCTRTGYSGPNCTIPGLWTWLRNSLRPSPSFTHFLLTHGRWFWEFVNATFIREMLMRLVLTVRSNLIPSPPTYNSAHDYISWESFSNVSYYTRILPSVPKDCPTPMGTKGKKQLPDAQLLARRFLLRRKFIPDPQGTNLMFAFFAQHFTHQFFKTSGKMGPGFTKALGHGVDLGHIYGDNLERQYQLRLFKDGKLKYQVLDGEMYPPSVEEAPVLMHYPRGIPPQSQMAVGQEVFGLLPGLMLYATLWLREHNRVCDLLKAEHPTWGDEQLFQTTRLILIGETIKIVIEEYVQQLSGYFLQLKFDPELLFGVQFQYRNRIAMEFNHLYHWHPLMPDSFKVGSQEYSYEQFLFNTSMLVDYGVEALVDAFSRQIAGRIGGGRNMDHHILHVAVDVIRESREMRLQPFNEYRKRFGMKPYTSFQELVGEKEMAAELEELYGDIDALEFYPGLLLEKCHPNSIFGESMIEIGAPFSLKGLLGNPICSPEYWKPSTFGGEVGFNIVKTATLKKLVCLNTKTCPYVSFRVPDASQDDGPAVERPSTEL

Compound	IC50 (cyclooxygenase) [nM]	IC50 (5-LO) [nM]
CCC1(c2cccc(OCC#Cc3ccccn3)c2)COC(C)(C)O1 (stereo not drawn) [2,2-dimethyl-4-ethyl-4-[3-(3-(2-pyridyl)prop-2-yn-1-yloxy)phenyl]-1,3-dioxolane]	> 40000	800
CCC1(c2cc(F)cc(OCc3ccc4c(ccc(=O)n4C)c3)c2)COC(C)(C)O1 (stereo not drawn) [4-ethyl-4-[5-fluoro-3-(1,2-dihydro-1-methyl-2-oxoquinolin-6-ylmethoxy)phenyl]-2,2-dimethyl-1,3-dioxolane]	–	80

From patent EP0385679B1, “Heterocyclic cyclic ethers with inhibitory activity on 5-lipoxygenase” (ZENECA LIMITED, priority 1989, dated 1990)
